A word on the GI50: it is the concentration at which growth is held to half of that of the control. The TGI is the concentration giving total growth inhibition.

Each structure is given as a SMILES string.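 A five-concentration, 48-hour dose response in 96-well plates underlies each endpoint, interpolated linearly between surrounding concentrations. GI50 is the concentration that inhibits growth by half. Definition used: TGI = concentration required for complete inhibition of growth.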

Some test systems named below: A498 renal; A549 NSCLC; DU-145 prostate; EKVX NSCLC; HOP-92 NSCLC; HS 578T breast; K-562 leukemia; MCF7 breast; OVCAR-5 ovarian; PC-3 prostate.
What all share (test): DTP human tumour cell line panel, 48 h

On to `O=C(CN1CCN(Cc2ccccc2Cl)CC1)NC1CC(=O)c2c(Br)sc(Br)c21` (stereo not given), for which the GI50 with A498 renal was 20.5 µM; in the assay with A549 NSCLC, 41.9 µM; in the assay with DU-145 prostate, 18.8 µM; with EKVX NSCLC, 21.7 µM; in the assay on HOP-92 NSCLC, 14.1 µM; in the assay on HS 578T breast, 29.4 µM. Moreover, the GI50 in the assay on K-562 leukemia is 29.6 µM; in the assay with MCF7 breast, 18.1 µM; with OVCAR-5 ovarian, 51.4 µM; in the assay on PC-3 prostate it was 16.1 µM. The TGI with A498 renal was 35.4 µM; with A549 NSCLC it was above 100 µM; in the assay on DU-145 prostate, 33.6 µM; in the assay with EKVX NSCLC it was 42 µM; in the assay with HOP-92 NSCLC, 31.6 µM; in the assay on HS 578T breast it was 71.5 µM. The TGI in the assay with K-562 leukemia was above 100 µM; in the assay with MCF7 breast it was 33.8 µM; in the assay with OVCAR-5 ovarian, above 100 µM; in the assay with PC-3 prostate, 34.6 µM.
`C[C@@H](N)COc1ccc(-c2cnc3ccc(N[C@H](C)c4cccc(F)c4)nn23)cc1`: the GI50 was 1.52 µM with A498 renal; 1.53 µM with A549 NSCLC; 3.01 µM with DU-145 prostate; 2.71 µM in the assay with EKVX NSCLC; 0.338 µM in the assay on HOP-92 NSCLC; 1.61 µM in the assay on HS 578T breast. In addition, the GI50 in the assay with K-562 leukemia is 1.95 µM; in the assay on MCF7 breast, 1.24 µM; with OVCAR-5 ovarian, 1.38 µM; in the assay with PC-3 prostate, 1.62 µM. Besides, the TGI with A498 renal stood at 5.58 µM; in the assay with A549 NSCLC, 3.82 µM; with DU-145 prostate, 11.4 µM; in the assay on EKVX NSCLC it was 12.6 µM; with HOP-92 NSCLC it was 1.89 µM; with HS 578T breast it was 3.82 µM. In addition, the TGI in the assay on K-562 leukemia is 6.96 µM; in the assay with MCF7 breast, 2.69 µM; in the assay on OVCAR-5 ovarian it was 4.54 µM; with PC-3 prostate, 9.39 µM.
For `NC(=O)c1cccc2c(N[C@H](CN3CCC3)c3ccc(Cl)c(C(F)(F)F)c3)ncnc12`, the GI50 in the assay with A498 renal is 0.138 µM; in the assay with A549 NSCLC, 1.47 µM; with DU-145 prostate it was 2.24 µM; in the assay on EKVX NSCLC it was 0.878 µM; in the assay with HOP-92 NSCLC it was 0.14 µM; with HS 578T breast, 0.191 µM. In addition, the GI50 with K-562 leukemia is 2.53 µM; with MCF7 breast it was 0.396 µM; in the assay with OVCAR-5 ovarian it was 1.77 µM; in the assay on PC-3 prostate it was 0.638 µM. The TGI with A498 renal was 0.908 µM; with A549 NSCLC, 12.4 µM; with DU-145 prostate, 16.2 µM; in the assay with EKVX NSCLC, 10.3 µM; in the assay on HOP-92 NSCLC, 2.27 µM; in the assay with HS 578T breast, 2.65 µM. Moreover, the TGI in the assay with K-562 leukemia is 10.8 µM; in the assay with MCF7 breast, 3.75 µM; with OVCAR-5 ovarian, 13.5 µM; in the assay on PC-3 prostate, 12.8 µM.
On to `Cc1cc(Cl)nc2ccc(Cc3ccc4nc(Cl)cc(C)c4c3)cc12`, for which the TGI in the assay on A498 renal is 69.1 µM; with A549 NSCLC it was above 100 µM; with DU-145 prostate, above 100 µM; in the assay with EKVX NSCLC, above 100 µM; in the assay on HOP-92 NSCLC, above 100 µM; with HS 578T breast it was above 100 µM. Besides, the TGI was above 100 µM in the assay with K-562 leukemia, 91.5 µM in the assay on MCF7 breast, above 100 µM in the assay with OVCAR-5 ovarian and above 100 µM in the assay on PC-3 prostate.
